Several values for one entry are separate records, joined by “and”; a condition that tells them apart may be missing. Equal entries are not always repeated.

A word on the Ki: it is the dissociation constant of the complex between target and ligand, obtained from inhibition or displacement. Lower therefore signals higher affinity.

The assay deals with 5-hydroxytryptamine receptor 4 (Rattus norvegicus, UniProt Q62758).
5-hydroxytryptamine receptor 4, sequence (Q62758 whole entry): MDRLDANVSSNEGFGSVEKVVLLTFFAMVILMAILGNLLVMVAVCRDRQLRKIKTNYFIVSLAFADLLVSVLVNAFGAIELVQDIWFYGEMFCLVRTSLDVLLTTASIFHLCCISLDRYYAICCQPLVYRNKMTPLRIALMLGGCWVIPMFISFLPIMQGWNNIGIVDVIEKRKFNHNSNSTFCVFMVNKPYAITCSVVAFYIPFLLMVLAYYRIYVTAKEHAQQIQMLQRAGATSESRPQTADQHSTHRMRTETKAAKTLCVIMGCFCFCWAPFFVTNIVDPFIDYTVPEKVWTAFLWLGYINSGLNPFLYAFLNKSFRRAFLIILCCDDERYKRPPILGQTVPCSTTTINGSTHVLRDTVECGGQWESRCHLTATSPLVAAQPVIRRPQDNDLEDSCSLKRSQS
For `CCN(CC)CCOC(=O)c1cc(Cl)c(N)cc1OC` [SDZ-205557], the inhibition constant Ki was 19.9 nM and 25.1 nM.
Next, `NCCc1c[nH]c2ccc(C(N)=O)cc12` [[3H]-5-carboxamidotryptamine]: 3160 nM and 5010 nM; `CC(C)n1c(=O)n(C(=O)NC2CC3CCC(C2)N3C)c2ccccc21` (stereo not drawn) [BIMU 8]: 15.8 nM and 50.1 nM and 79.4 nM.
Next, `Cn1cc(C(=O)OCC2CCN(CCNS(C)(=O)=O)CC2)c2ccccc21` [GR 113808]: 3.16 nM and 1.99 nM and 3.98 nM; `CCCCN1CCC(COC(=O)c2cc(Cl)c(N)c3c2OCCO3)CC1` [CAS_121881]: 1.25 nM and 0.39 nM and 0.31 nM; `COc1ccc2[nH]c(=O)n(C(=O)OC3CC4CCC(C3)N4C)c2c1` (stereo not drawn) [DAU 6285]: 79.4 nM and 63.1 nM and 158 nM.
The value for `COc1cc(N)c(Cl)cc1C(=O)OCC1CCN(CCc2ccc3c(c2)OCCO3)CC1` [RS 57639] was 2.51 nM and 1.25 nM; that for `CN1C2CCC1CC(OC(=O)c1c[nH]c3ccccc13)C2` (stereo not drawn) was 100 nM and 251 nM and 501 nM.

(Values after BindingDB's records for doi:10.1016/s0028-3908(97)00039-7 (Roche Bioscience, 1997).)
